The series has as its system rodent lifetime carcinogenesis bioassay, tumor incidence TD50. As to the kind of experiment: carcinogenic potency in animals, long-term in vivo studies, CPDB compilation (AID 1745844).

Calls of active or inactive are those of the source. How the calls were made is not given here.

The text below walks through data of PubChem BioAssay AID1745844 (Carcinogenic Potency Database (CPDB), 2022).

`CCCCCN(N=O)C(N)=O`: the TD50 (rat, strain Donryu, females, in drinking water, site: all sites, lesion: myelocytic leukemia, dosed 65 weeks, study length 65 weeks) was 19.9 mg/kg/day; the TD50 (rat, strain Donryu, females, in drinking water, site: any site (literature study), lesion: several types, types named in the paper, dosed 65 weeks, study length 65 weeks) was found to be 1.93 mg/kg/day; the TD50 (rat, strain Donryu, females, in drinking water, site: digestive tract, lesion: several types, types named in the paper, dosed 65 weeks, study length 65 weeks) was 1.15 mg/kg/day; the TD50 (rat, strain Donryu, females, in drinking water, site: esophagus, lesion: one or several types, types not named, dosed 65 weeks, study length 65 weeks) turned out to be 0.967 mg/kg/day; the TD50 (rat, strain Donryu, females, in drinking water, site: forestomach, lesion: one or several types, types not named, dosed 65 weeks, study length 65 weeks) was 1.35 mg/kg/day; the TD50 (rat, strain Donryu, females, in drinking water, site: liver, lesion: hepatocellular adenoma, dosed 65 weeks, study length 65 weeks) stood at 13.3 mg/kg/day. In addition, the TD50 (rat, strain Donryu, females, in drinking water, site: mammary gland, lesion: several types, types named in the paper, dosed 65 weeks, study length 65 weeks) was 11.9 mg/kg/day; the TD50 (rat, strain Donryu, males, in drinking water, site: all sites, lesion: myelocytic leukemia, dosed 65 weeks, study length 65 weeks) was 9.17 mg/kg/day; the TD50 (rat, strain Donryu, males, in drinking water, site: any site (literature study), lesion: several types, types named in the paper, dosed 65 weeks, study length 65 weeks) is 0.541 mg/kg/day; the TD50 (rat, strain Donryu, males, in drinking water, site: digestive tract, lesion: several types, types named in the paper, dosed 65 weeks, study length 65 weeks) was 0.532 mg/kg/day; the TD50 (rat, strain Donryu, males, in drinking water, site: esophagus, lesion: one or several types, types not named, dosed 65 weeks, study length 65 weeks) is 1.44 mg/kg/day; the TD50 (rat, strain Donryu, males, in drinking water, site: forestomach, lesion: one or several types, types not named, dosed 65 weeks, study length 65 weeks) amounted to 0.532 mg/kg/day. Besides, the TD50 runs as follows: (rat, strain Fischer 344, females, by gavage, site: forestomach, lesion: one or several types, types not named, dosed 50 weeks, study length 104 weeks) 0.478 mg/kg/day; (rat, strain Fischer 344, females, by gavage, site: liver, lesion: one or several types, types not named, dosed 50 weeks, study length 104 weeks) 4.7 mg/kg/day; (rat, strain Fischer 344, females, by gavage, site: lung, lesion: several types, types named in the paper, dosed 50 weeks, study length 104 weeks) 1.09 mg/kg/day; (rat, strain Fischer 344, females, by gavage, site: mammary gland, lesion: adenocarcinoma, dosed 50 weeks, study length 104 weeks) 2.98 mg/kg/day; (rat, strain Fischer 344, females, by gavage, site: uterus, lesion: several types, types named in the paper, dosed 50 weeks, study length 104 weeks) 0.934 mg/kg/day; (rat, strain Fischer 344, males, by gavage, site: all sites, lesion: mesothelioma, dosed 50 weeks, study length 104 weeks) 0.865 mg/kg/day. For the setting “rat, strain Fischer 344, males, by gavage, site: lung, lesion: several types, types named in the paper, dosed 50 weeks, study length 104 weeks”, the TD50 is 0.546 mg/kg/day. In addition, the carcinogen call (rat, strain Fischer 344, males, by gavage, site: forestomach, lesion: one or several types, types not named, dosed 50 weeks, study length 104 weeks) was “positive”.
Turning to `Nc1nc(/C=C/c2ccc([N+](=O)[O-])o2)no1`, the TD50 is, setting by setting: (mouse, strain Charles River CD1, females, in feed, site: forestomach, lesion: squamous-cell carcinoma, dosed 31 weeks, study length 75 weeks) 105 mg/kg/day; (mouse, strain Charles River CD1, females, in feed, site: forestomach, lesion: squamous-cell papilloma, dosed 31 weeks, study length 75 weeks) 1150 mg/kg/day; (mouse, strain Charles River CD1, females, in feed, site: lung, lesion: adenoma, dosed 31 weeks, study length 75 weeks) 1010 mg/kg/day; (mouse, strain Charles River CD1, females, in feed, site: thymus gland, lesion: lymphoma, dosed 31 weeks, study length 75 weeks) 262 mg/kg/day; (mouse, strain Charles River CD1, males, in feed, site: any site (literature study), lesion: several types, types named in the paper, dosed 38 weeks, study length 75 weeks) 29.2 mg/kg/day; (mouse, strain Charles River CD1, males, in feed, site: forestomach, lesion: squamous-cell carcinoma, dosed 38 weeks, study length 75 weeks) 130 mg/kg/day. Further, the TD50 reads like this: (mouse, strain Charles River CD1, males, in feed, site: forestomach, lesion: squamous-cell papilloma, dosed 38 weeks, study length 75 weeks) 514 mg/kg/day; (mouse, strain Charles River CD1, males, in feed, site: reticuloendothelium, lesion: several types, types named in the paper, dosed 38 weeks, study length 75 weeks) 492 mg/kg/day; (mouse, strain Charles River CD1, males, in feed, site: thymus gland, lesion: lymphoma, dosed 38 weeks, study length 75 weeks) 121 mg/kg/day. Besides, the carcinogen call (mouse, strain Charles River CD1, females, in feed, site: reticuloendothelium, lesion: several types, types named in the paper, dosed 31 weeks, study length 75 weeks) is “positive”.
Regarding `CC(O)CO` (stereo unspecified), the carcinogen call reads like this: (rat, strain Charles River CD (Sprague-Dawley), females, in feed, site: liver, lesion: nodular hyperplasia, dosed 104 weeks, study length 104 weeks) “negative (inactive)”; (rat, strain Charles River CD (Sprague-Dawley), males, in feed, site: liver, lesion: nodular hyperplasia, dosed 104 weeks, study length 104 weeks) “negative (inactive)”.
As to `CCN(CC)C(=O)Nc1ccc(OCC(O)CNC(C)(C)C)c(C(C)=O)c1` (stereo unspecified), the TD50 is 8020 mg/kg/day (inactive) (mouse, strain Charles River CD1, females, in feed, site: lung, lesion: several types, types named in the paper, dosed 104 weeks, study length 104 weeks); 4710 mg/kg/day (inactive) (mouse, strain Charles River CD1, males, in feed, site: lung, lesion: several types, types named in the paper, dosed 104 weeks, study length 104 weeks); 2480 mg/kg/day (inactive) (rat, strain Sprague-Dawley, females, in feed, site: any site (literature study), lesion: several types, types named in the paper, dosed 104 weeks, study length 104 weeks); 38100 mg/kg/day (inactive) (rat, strain Sprague-Dawley, females, in feed, site: liver, lesion: hepatocellular adenoma, dosed 104 weeks, study length 104 weeks); 38100 mg/kg/day (inactive) (rat, strain Sprague-Dawley, females, in feed, site: liver, lesion: hepatocellular carcinoma, dosed 104 weeks, study length 104 weeks); 684 mg/kg/day (inactive) (rat, strain Sprague-Dawley, males, in feed, site: any site (literature study), lesion: several types, types named in the paper, dosed 104 weeks, study length 104 weeks). The TD50 (rat, strain Sprague-Dawley, males, in feed, site: liver, lesion: hepatocellular adenoma, dosed 104 weeks, study length 104 weeks) was 12400 mg/kg/day (inactive). Also, the carcinogen call (rat, strain Sprague-Dawley, males, in feed, site: liver, lesion: hepatocellular carcinoma, dosed 104 weeks, study length 104 weeks) was “negative (inactive)”.
As to `O=C(Nc1cccc2c(=O)cc(-c3nn[nH]n3)oc12)c1ccc(OCCCCc2ccccc2)cc1`, the carcinogen call is “negative (inactive)” (rat, strain Jcl:SD, females, by gavage, site: liver, lesion: one or several types, types not named, dosed 52 weeks, study length 52 weeks); “negative (inactive)” (rat, strain Jcl:SD, females, by gavage, site: liver, lesion: one or several types, types not named, dosed 52 weeks, study length 56 weeks); “negative (inactive)” (rat, strain Jcl:SD, males, by gavage, site: liver, lesion: neoplastic nodule, dosed 52 weeks, study length 56 weeks); “negative (inactive)” (rat, strain Jcl:SD, males, by gavage, site: liver, lesion: one or several types, types not named, dosed 52 weeks, study length 52 weeks).
Turning to `O=NN1CCCC1c1cccnc1` (stereo unspecified), the TD50 runs as follows: (hamster, strain Syrian Golden, females, in drinking water, site: respiratory system, lesion: papilloma, dosed 31 weeks, study length 96 weeks) 11.5 mg/kg/day; (hamster, strain Syrian Golden, males, in drinking water, site: liver, lesion: angiosarcoma, dosed 31 weeks, study length 96 weeks) 34.4 mg/kg/day; (hamster, strain Syrian Golden, males, in drinking water, site: respiratory system, lesion: papilloma, dosed 31 weeks, study length 96 weeks) 10.1 mg/kg/day.
Take `CN(C)CCN(C)N=O`: the TD50 (hamster, strain Syrian Golden, females, by gavage, site: colon, lesion: several types, types named in the paper, dosed 61 weeks, study length 106 weeks) turned out to be 21 mg/kg/day; the TD50 (hamster, strain Syrian Golden, females, by gavage, site: liver, lesion: hepatocellular tumor, dosed 61 weeks, study length 106 weeks) stood at 44 mg/kg/day; the TD50 (hamster, strain Syrian Golden, females, by gavage, site: lung, lesion: alveolar/bronchiolar adenoma, dosed 61 weeks, study length 106 weeks) was 9.45 mg/kg/day; the TD50 (hamster, strain Syrian Golden, females, by gavage, site: nasal mucosa, lesion: malignant tumor, dosed 61 weeks, study length 106 weeks) is 9.45 mg/kg/day; the TD50 (hamster, strain Syrian Golden, females, by gavage, site: nasal mucosa, lesion: several types, types named in the paper, dosed 61 weeks, study length 106 weeks) is 2.76 mg/kg/day; the TD50 (hamster, strain Syrian Golden, males, by gavage, site: colon, lesion: adenocarcinoma, dosed 61 weeks, study length 106 weeks) was determined as 38.7 mg/kg/day. Moreover, the TD50 (hamster, strain Syrian Golden, males, by gavage, site: liver, lesion: hepatocellular tumor, dosed 61 weeks, study length 106 weeks) is 11.7 mg/kg/day; the TD50 (hamster, strain Syrian Golden, males, by gavage, site: nasal mucosa, lesion: malignant tumor, dosed 61 weeks, study length 106 weeks) is 38.7 mg/kg/day; the TD50 (hamster, strain Syrian Golden, males, by gavage, site: nasal mucosa, lesion: several types, types named in the paper, dosed 61 weeks, study length 106 weeks) was 6.25 mg/kg/day.

As a reminder, the TD50 is the 50% point of the dose-response relation for the toxic effect studied.
